{"source": "patent US20230134760A1", "about": "“CAR AND NRF2 DUAL ACTIVATOR AGENTS FOR CYCLOPHOSPHAMIDE-BASED AND DOXORUBICIN-BASED TREATMENTS OF CANCER” (priority 2020, published 2023)", "key": {"CYP2B6": {"test_system": "CYP2B6", "format": "cell-based", "settings": "human, hepatocytes", "procedure": "HPH were obtained from BIOIVT (Baltimore, Md.) and seeded at 1.5×10^6 or 7.5×10^5 cells/well in 6- or 12-well collagen I-coated plates, while 24-well collagen I-coated plates were seeded at 3.75×10^5 cells/well as described previously. 24 hours after seeding, HPH were cultured cells were overlaid with 0.25 mg/mL Matrigel Corning, Corning, N.Y.) 24 h after seeding in serum-free William's E Medium (WEM) supplemented with ITS+(insulin, transferrin, and selenium, 100×; […] Millipore Sigma), 100 U/ml penicillin, and 100 μg/ml streptomycin (Pen-Strep; ThermoFisher Scientific, Waltham, Mass.), and 2 mM L-glutamine (Invitrogen, Carlsbad, Calif.). Overlaid HPH were treated with compounds in Complete WEM (CYP2B6 and CYP3A4 studies and coculture studies). After 24 h treatment, HPH, BT549, MDA-MB-231, and H9c2 cells were washed and a phenol-chloroform extraction was used to isolate total RNA with the TRIzol reagent (ThermoFisher, Rockford, Ill.). Reverse transcription was performed on extracted RNA (1 μg) to produce cDNA using the High Capacity cDNA Archive kit according to manufacturer's instructions (Applied Biosystems, Foster, Calif.). […] Quantification of expression changes was done by the 2^ΔΔCt method, normalizing to GAPDH as the housekeeping gene and determining the fold change compared to control values (n=3). […]"}, "[1]": {"test_system": "iPSC-derived cardiomyocytes", "experiment": "Cell viability, DOX-induced cytotoxicity in iPSC-derived cardiomyocytes", "format": "cell-based, human", "settings": "co-administration with DOX", "procedure": "Immortalized triple negative breast cancer cell lines MDA-MB-231 and BT549 were obtained from ATCC (Rockville, Md.). Additionally, the h9c2 cell line was purchased from ATCC (Rockville, Md.). […] Human iPSC-derived cardiomyocytes were maintained in Mtesr plus and supplemented according to protocol. These cells were treated for 2 hrs or an overnight as indicated. Following a 2 hr pretreatment, cells were co-treated with DOX at indicated concentrations for 6 or 22 hours. Following the overnight treatments, RNA or protein was isolated. HPH were seeded in collagen-coated 24 well plates and pretreated for 24 hrs. BT549 were seeded on inverted coverslips. After a 24 hr pretreatment, hepatocytes were co-administered as indicated and coverslips were inserted. The cell lines were used for less than 60 passages. H9c2 cells were seeded 0.8×10^5 in 24-well plates. […] A Cell Counting Kit-8 (Enzo) assay was carried out. Cell viability was described as a percent of vehicle control (0.1% DMSO)."}, "hCAR or Nrf2": {"test_system": "hCAR or Nrf2", "experiment": "all curve and EC50 curve of selected compounds (FIG. 22-35)", "format": "cell-based", "parameters": "key to Emax: fold activation; firefly luciferase normalized to Renilla", "settings": "figure legend values", "procedure": "Cell lysates were assayed for luciferase activity and normalized against the activity of the Renilla luciferase using a Dual-Luciferase Kit (Promega). […] Compound 2, DL7076, was selected for further evaluation based on its effects in activating hCAR and Nrf2 using the HepG2 cell reporter assay (FIGS. 37a-37c)."}, "BT549 cells": {"test_system": "BT549 cells", "experiment": "Phosphorylated H2AX imaging, BT549 cells from multi-organ co-culture", "format": "cell-based", "settings": "CPA/DOX + DL7076", "procedure": "Additionally, HPH were cultured in collagen-coated 6-well plates and pre-treated as described in the previous co-culture system. BT549 and H9c2 cells were plated on similar modified coverslips 0.8×10^5 cells and allowed to attach for 24 hours during hepatocyte pre-treatment. […] Following pre-treatment, BT549 coverslips were inserted adjacent to H9c2 coverslips over the sandwich cultured HPH as depicted in FIG. 43a. […] Both BT549 and H9c2 cells were harvested at indicated time points and assess for viability, apoptosis, and DNA damage as detailed further. H9c2 rat cardiomyocytes seeded at 0.8×10^5 in 24-well plates. […] Cells were washed 3× with PBS. […] The oxidation of DFDA to the fluorescent dichlorofluorescein was viewed using fluorescence microscopy (Nikon Eclipse Ti) with a FITC filter at […] and quantified using Brightspot detection for fluorescent detection of triplicate images and normalized to the vehicle control (0.1% DMSO). […] Phosphorylation was calculated through fluorescence intensity all normalized to the vehicle control. […] The coverslips were visualized at 10× magnification using fluorescence microscopy (Nikon Eclipse Ti) and the amount of phosphorylation was quantified as mean intensity using brightspot detection of quadruplet images of the whole well and normalized to the vehicle control (0.1% DMSO)."}}}
{"compound": "O=C(NCCN=C=S)c1c(-c2ccc3ccccc3c2)nc2sccn12", "note": "[DL7076, N-(2-Isothiocyanatoethyl)-6-(naphthalen-2-yl)imidazo[2,1-b]thiazole-5-carboxamide]", "values": [{"measurement": "CYP2B6 protein induction", "setting": "CYP2B6", "value": "clear preferential induction of CYP2B6"}, {"measurement": "reversal of DOX-induced cytotoxicity", "setting": "[1]", "value": "efficiently reversed by co-administration of DL7076"}, {"measurement": "Emax", "setting": "hCAR or Nrf2", "value": 2.5}, {"measurement": "EC50", "setting": "hCAR or Nrf2; read-out: EC50", "value": 3.9, "unit": "µM"}, {"measurement": "H2AX phosphorylation (DNA damage)", "setting": "BT549 cells", "value": "effectively enhanced the CPA/DOX-mediated DNA damage"}]}
